{"source": "patent US20060173062A1", "about": "“Use of selective cyclooxygenase-2 inhibitors for the treatment of endometriosis” (priority 2003, published 2006)", "test_system": "rat uterine horn implants in the peritoneal cavity", "assay": "Rat model for endometriosis", "assay_type": "in vivo", "conditions": "14 days; for implant volume: FIG. 1; for implant weight: FIG. 2", "description": "FIG. 1 compares the mean volume of rat uterine horn implants in the peritoneal cavity of rats before and after 14 days of administration of a cyclooxygenase-2-selective inhibitor.\nFIG. 2 compares the in mean weight of rat uterine horn implants in the peritoneal cavity of rats before and after 14 days of administration of a cyclooxygenase-2-selective inhibitor.\nRat Model for Endometriosis:\nIn this model 5×5 mm sections of rat uterine hom are implanted in the peritoneal cavity (extra uterine endometrial wall) of subject rats. Four weeks after transplantation of the endometrial tissues, rats were anesthetized with Telazol (20 mg/kg, IP, Fort Dodge Animal Health, Fort Dodge, Iowa), Oxymorphone (0.2 mg/kg SC, Henry Schein, Melville, N.Y.) and immobilized on a standard rat operating board. The surgical site was shaved and cleaned using three cycles of Betadine/alcohol or DuraPrep® (3M, St. Paul, Minn.). Using aseptic technique, an incision was made through the skin, SC and muscle layers. The growth of the explant was evaluated for size and acceptance/rejection. On gross examination, the endometrial implants appeared as uni-loculated (occasional as multilobulated) cystic masses filled with clear/light yellowish or dark brown serous fluid. In some instances, at the time of 2nd laparotomy, partial or complete adhesions from connective tissue, mesentry, and bowel to the implants were noted. In those instances, a careful separation was executed, avoiding the rupture the implants. While having a clear vision of the implants, the length, width and height of the implant was measured using a sterile Jameson Caliper (BRI, Rockville, Md.), and documented. The abdominal incisions were closed by using 4-0 chromic gut (Ethicon). The rats were observed until fully ambulatory.\nMore animals than required for the study were used for surgery. After the 2nd laparotomy, animals were assigned to control or treated groups in an attempt to equalize the endometrium implant size between groups. The rats bearing implant with clear/light yellowish fluid were used in study group selection. The rats bearing implant with dark brown fluid considered as hemorrhagic solid mass were excluded from the study.\nTreatment with selected drug therapy started after 1 day of post-surgical recovery. Rats were given the test compound, the cyclooxygenase-2 selective inhibitor Compound A, or vehicle alone or Raloxifene (10 mpk) or Lupron Depot (1 mpk) for a period of 14 days. At the end of the 14-day treatment period, the animals were euthanized at pro-estrus cycle which was confirmed by vaginal smear. Necropsy involved opening the abdomen and evaluating the implant size. The implant and right uterine horn were excised for wet weighing.\nCompound A has the following structure: [drawing 1] […]"}
{"compound": "CS(=O)(=O)c1ccc(C2COC(=O)C2c2ccc(F)c(F)c2)cc1", "note": "(stereo not shown) [Compound A]", "values": [{"measurement": "implant volume", "setting": "1 mpk, BID by oral gavage", "value": "not significant at the 95 percent confidence level"}, {"measurement": "implant weight", "setting": "1 mpk, BID by oral gavage", "value": "not significant at the 95 percent confidence level"}, {"measurement": "implant volume", "setting": "10 mpk, BD by oral gavage", "value": "reduce implant volume and weight to a significant degree at the 95 percent confidence level"}, {"measurement": "implant weight", "setting": "10 mpk, BD by oral gavage", "value": "reduce implant volume and weight to a significant degree at the 95 percent confidence level"}]}
